# Like-named read-outs stand apart in the source and are kept apart here.
# Key:
# [1] = test system: woodchuck hepatitis virus (WHV); test: Inhibition of WHV replication in chronically infected woodchucks (DNA polymerase activity); format: in vivo, woodchucks (Marmota monax); conditions: for virus replication levels: dosages similar to FMAU (2-4 mg/kg per day); for virus replication levels after cessation of treatment: dosages similar to FMAU, soon after cessation; for WHV DNA polymerase levels / WHV DNA polymerase levels after cessation of drug administration: other antivirals, dose not given
# Procedure: All woodchucks bearing chronic active hepatitis virus (Hantz, supra) were administered FMAU twice daily by interperitoneal injections of FMAU in the following dosages:
# Studies were then undertaken to evaluate FMAU and FEAU in this animal model using woodchucks naturally chronically-infected with woodchuck hepatitis virus (24). It was assumed that these nucleosides would be anabolized to their nucleoside triphosphates within the animal. WHV replication was measured periodically by the endogenous DNA polymerase activity and by the detection of WHV DNA by the dot-blot hybridization assay. Three different dosages of FMAU and FEAU were investigated. FMAU at 2 mg/kg/day x 5, (given intraperitoneally TABLE VIII
# In accordance with the procedures of Example 2, the FEAU inhibition of WHV replication was further studied at different doses administered orally to woodchucks through stomach tubes. Two groups of woodchucks with different initial WHV replication values were examined.
# Seven woodchucks with high WHV replication were tested. High replication was defined as over 1000 counts per minute of DNA polymerase activity, and the mean replication was 1600.
# Seven woodchucks with low WHV replication were tested. Low replication was defined as lower than 1000 counts per minute of DNA polymerase activity, and the mean replication was 600-800.
# WHV DNA polymerase = target: T1, WHV DNA polymerase (Woodchuck hepatitis B virus, UniProt P03160); test: DNA polymerase assay with purified virus particles; format: biochemical; conditions: read-out: ID₅₀ WHV DNA POLYMERASE
# T1 construct: The reaction was started by addition of the virus particles with 2-mercaptoethanol and Nonidet P 40; from tissue; host or cells: serum pool of five chronically infected woodchucks (Marmota monax); virions purified on sucrose and CsCl gradients
# Description: (§1) HBV particles containing DNA polymerase activity were purified from the serum of an immunosuppressed patient, positive for HBsAG. WHV was obtained from a serum pool of five woodchucks (Marmota monax), chronic carriers of the virus. The woodchucks initially imported from Pennsylvania belonged to a colony followed for over one year by serological tests as reported in Hantz et al., J. Virol. Metho. 7: 45-55 (1983). Virus was purified by centrifugation on sucrose and isopycnic CsCl gradients.
# (§2) DNA polymerase was assayed as described by Kaplan et al., J. Virol. 12: 995 (1973) with minor modification. The assay was performed in a 50 µl reaction mixture containing 50 mM Tris-HCl pH 7.5, 40 mM MgCl₂, 60 mM NH₄Cl, 100 µM each dATP, dCTP and dGTP, 0.2-0.7 µM [³H] dTTP (30 Ci/mmol), 10 mM 2-mercaptoethanol, 0.5% Nonidet P-40 and enzyme. The reaction was started by addition of the virus particles with 2-mercaptoethanol and Nonidet P 40. Incubation was at 37°C for 1 hour. Acid insoluble radioactive material was collected on a glass fiber filter (GF/C Whatman). Filters were washed 5 times with cold 5% trichloracetic acid containing 10 mM sodium pyrophosphate, then with 95% ethanol. Radioactivity of the dried filter was measured in a liquid scintillation counter.
# (§3) The relative sensitivities of both enzymes to ACVTP, FIACTP and BVdUTP were compared using an excess of nucleotides. For each inhibitor, the concentration of the corresponding radioactive triphosphate was maintained at 2 to 3 times the Km value while the remaining nucleotides were in great excess (50 µM).
# HBV DNA polymerase [2] = target: T2, HBV DNA polymerase (Hepatitis B virus genotype D subtype ayw, UniProt P03156); test: DNA polymerase assay with purified virus particles; format: biochemical; conditions: for IC50: concentration of inhibitor giving a 50% inhibition of DNA polymerase activity, read-out: ID₅₀ HBV DNA POLYMERASE; for nature of inhibition (Lineweaver-Burk plots): ACVTP, FIACTP, BVdUTP versus dGTP, dCTP, dTTP respectively, similar for WHV DNA polymerase; for ID₅₀ compared with FIACTP (times more): stated for HBV and WHV DNA polymerases; for relative efficiency as inhibitor of HBV DNA polymerase: excess of nucleotides, similar results with WHV DNA polymerase
# T2 construct: from tissue; host or cells: serum of an immunosuppressed, HBsAg-positive patient; virions purified on sucrose and CsCl gradients
# Description: as §1, §2, §3
# HBV DNA polymerase [3] = target: T2, HBV DNA polymerase; test: Time course of DNA synthesis with triphosphate analogs in place of the natural substrate; format: biochemical; conditions: for DNA synthesis with analog substituted for the natural substrate: ara-TTP for dTTP, ara-CTP for dCTP, ACVTP for dGTP; for HBV DNA synthesis after addition of the normal substrate: reaction started with analog instead of normal substrate (ACVTP 5 µM), normal substrate (100 µM dGTP) added after 120 minutes
# Procedure: as §2
# To determine the effect of the three analogs on viral DNA synthesis, a time course experiment was performed with HBV DNA polymerase. [³H] dATP was used as the labeled substrate. With all four nucleoside triphosphate substrates, the reaction was linear up to 60 mn. […] The substitution of dTTP by BVdUTP permitted the viral DNA synthesis up to 46% of the control after 3 hours of reaction. This value increased to 67% of the optimal activity after 4 h of reaction.
# BVdUTP was the most efficient alternate substrate for both enzymes. The DNA synthesized with BVdUTP as alternate substrate was analyzed by agarose gel electrophoresis. Only incomplete filling of the single-stranded region of HBV or WHV DNA was obtained with BVdUTP.
# The effect of ACVTP on HBV DNA synthesis was also studied in a time course experiment. [³H] dTTP was the labeled substrate. The reaction was initiated without dGTP or with 5 µm ACVTP instead of dGTP. Under these conditions, no incorporation of [³H] dTMP could be measured. After 120 minutes of reaction, 100 µM of dGTP was added. In the assay without dGTP only, the addition of dGTP increased DNA synthesis as expected. […] By comparison, when the reaction was started with the same proportion of ACVTP (5 µM) and dGTP (100 µM) a significant DNA synthesis was observed. Similar experiments were carried out with ara-ATP and ara-CTP.
# physchem = test: physchem
# Description: Ongoing testing of woodchucks bearing hepatitis virus is being conducted with the following additional pyrimidine nucleoside compounds: FIAC (2′-fluoro-2′-deoxy-arabinosyl-5-iodoocytosine) and FIAU (2′-fluoro-2′-deoxy-arabinosyl-5-iodouracil). As with FMAU, water is the preferred carrier.
# If necessary, the solubility of the compounds FMAU, FIAC, and FIAU may be increased by adding acid or base to the aqueous solvent.
# HSV-2 (STRAIN G) = conditions: cited from earlier work; for MDD: twice a day for 4 days from 5 hr after inoculation, calculated on day 21; for % SURVIVORS: twice a day for 4 days; for %WT GAIN ON DAY 7 / %WT GAIN ON DAY 14 / %WT GAIN ON DAY 21 / %WT GAIN ON DAY 30: compared to day 1
# [4] = concentration of inhibitor giving a 50% inhibition of DNA polymerase activity
# T1 sequence (P03160 whole entry): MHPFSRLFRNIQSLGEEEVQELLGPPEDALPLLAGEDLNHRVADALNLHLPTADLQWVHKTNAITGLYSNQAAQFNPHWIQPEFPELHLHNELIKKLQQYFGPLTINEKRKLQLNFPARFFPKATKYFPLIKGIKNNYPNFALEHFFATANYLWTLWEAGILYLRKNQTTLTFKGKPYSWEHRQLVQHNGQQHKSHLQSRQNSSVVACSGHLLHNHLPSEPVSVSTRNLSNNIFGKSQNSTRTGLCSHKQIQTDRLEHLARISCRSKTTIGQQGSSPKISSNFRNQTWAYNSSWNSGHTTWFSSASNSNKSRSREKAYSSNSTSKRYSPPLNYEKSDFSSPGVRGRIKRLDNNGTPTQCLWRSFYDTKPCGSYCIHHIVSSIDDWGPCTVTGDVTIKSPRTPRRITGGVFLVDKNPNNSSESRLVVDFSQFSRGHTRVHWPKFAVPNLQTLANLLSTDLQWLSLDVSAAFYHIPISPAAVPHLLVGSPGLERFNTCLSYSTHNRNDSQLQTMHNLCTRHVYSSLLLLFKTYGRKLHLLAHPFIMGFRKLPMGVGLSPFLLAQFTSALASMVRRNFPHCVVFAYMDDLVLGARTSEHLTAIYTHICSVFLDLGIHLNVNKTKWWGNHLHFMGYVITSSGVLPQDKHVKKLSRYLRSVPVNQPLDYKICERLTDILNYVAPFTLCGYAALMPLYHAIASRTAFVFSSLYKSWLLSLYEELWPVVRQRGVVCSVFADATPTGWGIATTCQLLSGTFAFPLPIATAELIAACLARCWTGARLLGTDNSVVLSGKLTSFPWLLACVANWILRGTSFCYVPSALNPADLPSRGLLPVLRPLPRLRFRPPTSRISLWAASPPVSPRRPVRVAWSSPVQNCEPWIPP
# T2 sequence (P03156 whole entry): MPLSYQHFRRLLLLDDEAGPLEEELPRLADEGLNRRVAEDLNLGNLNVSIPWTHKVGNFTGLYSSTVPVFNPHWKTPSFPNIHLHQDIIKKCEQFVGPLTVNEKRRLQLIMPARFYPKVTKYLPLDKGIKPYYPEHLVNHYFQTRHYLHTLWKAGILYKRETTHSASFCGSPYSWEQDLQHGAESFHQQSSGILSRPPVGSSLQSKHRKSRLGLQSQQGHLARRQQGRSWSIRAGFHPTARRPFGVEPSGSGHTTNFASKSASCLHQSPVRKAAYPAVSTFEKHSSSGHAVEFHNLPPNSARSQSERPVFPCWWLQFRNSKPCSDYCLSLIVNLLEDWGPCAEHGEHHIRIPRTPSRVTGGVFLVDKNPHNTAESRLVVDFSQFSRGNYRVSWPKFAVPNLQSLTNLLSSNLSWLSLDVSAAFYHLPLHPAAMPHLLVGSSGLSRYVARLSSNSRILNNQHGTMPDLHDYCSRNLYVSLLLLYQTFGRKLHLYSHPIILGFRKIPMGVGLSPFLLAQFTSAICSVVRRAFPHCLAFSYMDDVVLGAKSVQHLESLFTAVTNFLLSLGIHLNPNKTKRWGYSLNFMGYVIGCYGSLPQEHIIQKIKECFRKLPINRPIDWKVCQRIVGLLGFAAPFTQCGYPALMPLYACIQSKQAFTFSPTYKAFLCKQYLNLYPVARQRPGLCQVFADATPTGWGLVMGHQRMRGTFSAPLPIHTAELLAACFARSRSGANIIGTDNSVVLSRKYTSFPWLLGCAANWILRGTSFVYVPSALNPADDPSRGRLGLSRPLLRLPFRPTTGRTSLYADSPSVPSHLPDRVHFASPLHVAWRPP
smiles,measurement,setting,value
Nc1ncnc2c1ncn2[C@@H]1O[C@H](COP(=O)(O)O)[C@@H](O)[C@@H]1O [ara-AMP],virus replication levels,[1],diminished
same,virus replication levels after cessation of treatment,[1],rebounded to pretreatment levels
same,WHV DNA polymerase levels,[1],diminished
same,WHV DNA polymerase levels after cessation of drug administration,[1],rebounded to pretreatment levels
Cc1cn([C@@H]2O[C@H](COP(=O)(O)OP(=O)(O)OP(=O)(O)O)[C@@H](O)[C@@H]2F)c(=O)[nH]c1=O [FMAU-TP],IC50,WHV DNA polymerase,50 nM
same,IC50,HBV DNA polymerase [2],25 nM
Nc1nc2c(ncn2COCCOP(=O)(O)OP(=O)(O)OP(=O)(O)O)c(=O)[nH]1 [ACVTP],IC50,WHV DNA polymerase; [4],700 nM
same,nature of inhibition (Lineweaver-Burk plots),HBV DNA polymerase [2],competitive
same,IC50,HBV DNA polymerase [2],900 nM
same,ID₅₀ compared with FIACTP (times more),HBV DNA polymerase [2],18 times
same,DNA synthesis with analog substituted for the natural substrate,HBV DNA polymerase [3],did not increase the polymerization process
same,HBV DNA synthesis after addition of the normal substrate,HBV DNA polymerase [3],no DNA synthesis was observed
Nc1nc2c(ncn2COCCO)c(=O)[nH]1 [acyclovir],virus replication levels,[1],diminished
same,virus replication levels after cessation of treatment,[1],rebounded to pretreatment levels
Nc1nc(=O)n([C@@H]2O[C@H](COP(=O)(O)OP(=O)(O)OP(=O)(O)O)[C@@H](O)[C@@H]2F)cc1I [FIACTP],IC50,WHV DNA polymerase; [4],100 nM
same,nature of inhibition (Lineweaver-Burk plots),HBV DNA polymerase [2],competitive
same,relative efficiency as inhibitor of HBV DNA polymerase,HBV DNA polymerase [2],most efficient inhibitor
Nc1ncc2ncn(COCCO)c2n1 [6-deoxy-acyclovir],WHV DNA polymerase levels,[1],diminished
same,WHV DNA polymerase levels after cessation of drug administration,[1],rebounded to pretreatment levels
Nc1nc2c(ncn2COC(CO)CO)c(=O)[nH]1 [DHPG],WHV DNA polymerase levels,[1],diminished
same,WHV DNA polymerase levels after cessation of drug administration,[1],rebounded to pretreatment levels
O=c1[nH]c(=O)n([C@H]2C[C@H](O)[C@@H](COP(=O)(O)OP(=O)(O)OP(=O)(O)O)O2)cc1/C=C/Br [BVdUTP],IC50,WHV DNA polymerase; [4],300 nM
same,nature of inhibition (Lineweaver-Burk plots),HBV DNA polymerase [2],competitive
same,IC50,HBV DNA polymerase [2],250 nM
same,ID₅₀ compared with FIACTP (times more),HBV DNA polymerase [2],5 times
Cc1cn([C@@H]2O[C@H](COP(=O)(O)OP(=O)(O)OP(=O)(O)O)[C@@H](O)[C@@H]2O)c(=O)[nH]c1=O [ara-TTP],IC50,WHV DNA polymerase; [4],400 nM
same,IC50,HBV DNA polymerase [2],300 nM
same,DNA synthesis with analog substituted for the natural substrate,HBV DNA polymerase [3],no significant DNA synthesis
Nc1ncnc2c1ncn2[C@@H]1O[C@H](COP(=O)(O)OP(=O)(O)OP(=O)(O)O)[C@@H](O)[C@@H]1O [ara-ATP],HBV DNA synthesis after addition of the normal substrate,HBV DNA polymerase [3],increased the HBV DNA synthesis
"O=c1[nH]c(=O)n([C@@H]2O[C@H](CO)[C@@H](O)[C@@H]2F)cc1I [FIAU, 2′-fluoro-2′-deoxy-arabinosyl-5-iodouracil]",solubility,physchem,increased many fold
Nc1ccn([C@@H]2O[C@H](COP(=O)(O)OP(=O)(O)OP(=O)(O)O)[C@@H](O)[C@@H]2O)c(=O)n1 [ara-CTP],IC50,WHV DNA polymerase; [4],1200 nM
same,IC50,HBV DNA polymerase [2],1100 nM
same,relative efficiency as inhibitor of HBV DNA polymerase,HBV DNA polymerase [2],least efficient
same,DNA synthesis with analog substituted for the natural substrate,HBV DNA polymerase [3],no significant incorporation
same,HBV DNA synthesis after addition of the normal substrate,HBV DNA polymerase [3],increased the HBV DNA synthesis
"Nc1nc(=O)n([C@@H]2O[C@H](CO)[C@@H](O)[C@@H]2F)cc1I [FIAC, 1-(2'-deoxy-2'-fluoro-beta-D-arabinofuranosyl)-5-iodocytosine]",solubility,physchem; aqueous hydrochloric acid,~250 mg/mL
same,toxicity (previous results),"[1]; woodchucks, previous results",lethal toxicity
"CCc1cn([C@H]2C[C@H](O)[C@@H](CO)O2)c(=O)[nH]c1=O [EDU, 5-ethyl-2′-deoxyuridine, reference compound]",MDD,HSV-2 (STRAIN G); EDU 800 MG/KG/DAY,7.6
same,% SURVIVORS,HSV-2 (STRAIN G); EDU 800 MG/KG/DAY,13%
same,%WT GAIN ON DAY 7,HSV-2 (STRAIN G); EDU 800 MG/KG/DAY,-10%
same,%WT GAIN ON DAY 14,HSV-2 (STRAIN G); EDU 800 MG/KG/DAY,-6%
same,%WT GAIN ON DAY 21,HSV-2 (STRAIN G); EDU 800 MG/KG/DAY,2%
same,%WT GAIN ON DAY 30,HSV-2 (STRAIN G); EDU 800 MG/KG/DAY,6%
same,MDD,HSV-2 (STRAIN G); EDU 1000 MG/KG/DAY,8.6
same,% SURVIVORS,HSV-2 (STRAIN G); EDU 1000 MG/KG/DAY,33%
same,%WT GAIN ON DAY 7,HSV-2 (STRAIN G); EDU 1000 MG/KG/DAY,3%
same,%WT GAIN ON DAY 14,HSV-2 (STRAIN G); EDU 1000 MG/KG/DAY,13%
same,%WT GAIN ON DAY 21,HSV-2 (STRAIN G); EDU 1000 MG/KG/DAY,34%
same,%WT GAIN ON DAY 30,HSV-2 (STRAIN G); EDU 1000 MG/KG/DAY,43%

# Reference: patent publication EP0338042B1, “COMPOSITION AND METHOD FOR TREATING HEPATITIS VIRUS INFECTIONS USING 1-(2'-DEOXY-2'-FLUORO-BETA-D-ARABINOFURANOSYL)-5-ETHYLURACIL” (priority 1987, dated 1989)
